From the SangsterLogP compilation come the findings set out here.

The structures appear in SMILES notation.

A short description of this data set: method code SF-AS, from DOI: 10.1139/v66-154.
On to `COc1cc(C=C[N+](=O)[O-])ccc1O`, for which the logP was found to be 1.88.
As to `O=[N+]([O-])/C=C/c1ccccc1Cl`, the logP turned out to be 2.85.
Compound `O=C1C=C(Cl)C(=O)c2ccccc21` registered a logP of 2.15.
`O=[N+]([O-])C=Cc1cc([N+](=O)[O-])ccc1Cl` showed a logP of 2.23.
The compound `COC1=C(C)C(=O)c2ccccc2C1=O` yielded a logP of 2.14.
Then `CCCCNC1=CC(=O)c2ccccc2C1=O`, with 3.11.
`O=[N+]([O-])/C=C/c1ccc([N+](=O)[O-])cc1` yielded a lipophilicity (logP) of 1.89.
To `O=C1C=C(c2ccccc2)C(=O)c2ccccc21` belongs 4.4; to `O=[N+]([O-])/C=C/c1ccc(Cl)cc1`, 2.44; to `O=[N+]([O-])/C=C/c1ccc(O)cc1`, 2.12.
Then `COc1cccc(/C=C/[N+](=O)[O-])c1`, with 2.3.
In turn, `Cc1cc2c(cc1C)C(=O)C=CC2=O` returned a logP of 2.49. This logP and that of the compound before are within 0.2 log units of each other.
Consider `O=C1C=CC(=O)c2ccccc21`, for which the logP is 1.71.
`O=[N+]([O-])C=Cc1cccc(O)c1` yielded a lipophilicity (logP) of 2.07.
Then `CN(C)c1ccc(/C=C/[N+](=O)[O-])cc1`, with 2.67.
As for `CC(=O)NC1=C(Nc2ccccc2)C(=O)c2ccccc2C1=O`, the logP stood at 1.73.
To `CC1=C(O)c2ccccc2C(=O)C1=O` belongs 1.2; to `O=C1C=C(Nc2ccccc2)C(=O)c2ccccc21`, 2.84; to `O=[N+]([O-])/C=C/c1cccc([N+](=O)[O-])c1`, 1.82.
To `CCCCSC1=CC(=O)c2ccccc2C1=O` belongs 3.29.
`O=[N+]([O-])/C=C/c1ccccc1[N+](=O)[O-]` had a logP of 1.8.
The compound `O=C1C(Nc2ccccc2)=C(S(=O)(=O)c2ccccc2)C(=O)c2ccccc21` registered a logP of 3.38.
For the compound `O=C1C=C(S(=O)(=O)c2ccccc2)C(=O)c2ccccc21`, the logP turned out to be 2.14.
For the compound `O=[N+]([O-])C=Cc1ccccc1`, the logP was determined as 2.11.
Take `CCCCSC1=C(NC(C)=O)C(=O)c2ccccc2C1=O`: the logP was determined as 2.07.
Then `Cc1ccc2c(c1)C(=O)C=CC2=O`, with 2.1; and `C/C(=C\c1ccccc1)[N+](=O)[O-]`, with 2.52; and `O=[N+]([O-])/C=C/c1cccc(Cl)c1`, with 2.57.
To `COC1=CC(=O)c2ccccc2C1=O` belongs 1.35; to `CCCCNC1=C(Cl)C(=O)c2ccccc2C1=O`, 4.26.
To `CC(=O)NC1=CC(=O)c2ccccc2C1=O` belongs 1.29; to `O=C1C(Cl)=C(Nc2ccccc2)C(=O)c2ccccc21`, 4.22.

As a reminder, the logP is the decadic logarithm of the partition coefficient of the neutral form, usually between octanol and water. A higher logP goes with a more lipophilic compound.
